Each block holds one sequence with its values, some of them ahead of it.
Tested on: GST-tagged Cn
Assay: PEPperPRINT peptide microarray binding assay with GST-tagged Cn
Procedure, shortened: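 Qualitative binding: peptides printed on a PEPperPRINT microarray were incubated overnight at 4 °C with 1 mg/ml GST-tagged Cn, then detected with Alexa-Fluor 647 anti-GST antibody. Log fluorescence was baseline-corrected, averaged over duplicate spots, Z-normalized and averaged across five repeats.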

[1] = GST-tagged Cn, max over the chip spots listed under Location on chip
[2] = GST-tagged Cn, mean over the chip spots listed under Location on chip
[3] = GST-tagged Cn, max over the spots named in Location on chip
[4] = GST-tagged Cn, mean over the spots named in Location on chip
[5] = GST-tagged Cn, max over the spots on the chip (two locations)
[6] = GST-tagged Cn, mean over the spots on the chip (two locations)
[7] = max over the chip locations listed for the peptide (two spots)
[8] = mean over the chip locations listed for the peptide (two spots)
[9] = max over the spots listed under Location on chip
[10] = mean over the spots listed under Location on chip
[11] = GST-tagged Cn, max over the chip locations
[12] = GST-tagged Cn, mean over the chip locations

Sequence: SAGAGVGIVITVTEAE [SeqRBMlowT_164]
Chip Fluorescence (max) [3]: 1.523 | Chip Fluorescence (mean) [4]: -0.8688

Sequence: SAGAGVQIVITVTEAE [SeqRBMlowT_1437]
Chip Fluorescence (max) [5]: 1.271 | Chip Fluorescence (mean) [6]: -0.4781

Sequence: SAGTGVGIVITVTEAE [SeqRBMlowT_1404]
Chip Fluorescence (max) [7]: 4.275 | Chip Fluorescence (mean) [8]: 0.4123

Sequence: SDSANPEITITPAELP [SeqRBMlowT_1995]
Chip Fluorescence (max) [7]: 3.663 | Chip Fluorescence (mean) [8]: 2.123

Sequence: SFWANPQFIVSLEEPD [SeqRBMlowT_610]
Chip Fluorescence (max) [1]: 0.3721 | Chip Fluorescence (mean) [2]: -0.5491

Sequence: SHKASPPTLNESPVTH [SeqRBM_2083]
Chip Fluorescence (max) [11]: -0.06558 | Chip Fluorescence (mean) [12]: -1.173

Sequence: SHMAPPAINIDFAPSN [SeqCRZ1_Metarhizium_rileyi]
Chip Fluorescence (max) [11]: 0.3108 | Chip Fluorescence (mean) [12]: -0.9278

Sequence: SKLMCVTLAIGSLSTS [SeqRBM_2514]
Chip Fluorescence (max) [5]: 1.101 | Chip Fluorescence (mean) [6]: -0.2904

Sequence: SLKLWMLLGIEAFTLS [SeqRBM_4562]
Chip Fluorescence (max) [5]: 1.02 | Chip Fluorescence (mean) [6]: 0.3817

Sequence: SPSIVANADLVVPYSE [SeqRBM_1237]
Chip Fluorescence (max) [1]: 0.5354 | Chip Fluorescence (mean) [2]: -0.2316

Sequence: SPSNPPEIIISSREDN [SeqKCNN2_Mus_musculus]
Chip Fluorescence (max) [9]: 3.195 | Chip Fluorescence (mean) [10]: 0.7018

Sequence: SQAKSPRIEITAYTHV [SeqRBM_8514]
Chip Fluorescence (max) [1]: 0.9232 | Chip Fluorescence (mean) [2]: -0.444

Sequence: SQMAAPAINIDFAPTN [SeqRBMlowT_314]
Chip Fluorescence (max) [5]: 0.998 | Chip Fluorescence (mean) [6]: -0.1818

Sequence: SQMGKSRPWVSPERDN [SeqRBM_2721]
Chip Fluorescence (max) [1]: 0.7358 | Chip Fluorescence (mean) [2]: -0.1667

Sequence: SSEYQESLCIENFSAN [SeqRBM_3304]
Chip Fluorescence (max) [3]: 1.766 | Chip Fluorescence (mean) [4]: 0.6423

Sequence: SSLECPHVQVTVSGQR [SeqRBM_6881]
Chip Fluorescence (max) [3]: 1.51 | Chip Fluorescence (mean) [4]: 0.9297

Sequence: SSMAPPAINIDFAPTN [SeqRBMlowT_1806]
Chip Fluorescence (max) [3]: 1.404 | Chip Fluorescence (mean) [4]: 0.3806

Sequence: SSQGSSRPARSPERTV [SeqRBM_2387]
Chip Fluorescence (max) [1]: 0.4699 | Chip Fluorescence (mean) [2]: -0.1808

Sequence: SSRIQSKIVVNEPKQI [SeqRBM_7418]
Chip Fluorescence (max) [11]: -0.3136 | Chip Fluorescence (mean) [12]: -1.152

Sequence: SSSSLPTFQFSTPATL [SeqRBM_7341]
Chip Fluorescence (max) [5]: 1.265 | Chip Fluorescence (mean) [6]: -1.213

Sequence: STAALPKFDFSNPHIS [SeqRBM_9234]
Chip Fluorescence (max) [9]: 2.8681 | Chip Fluorescence (mean) [10]: 0.4605

Sequence: STSSLPTFSFSPPAPS [SeqRBMlowT_2355]
Chip Fluorescence (max) [3]: 1.468 | Chip Fluorescence (mean) [4]: -0.4662

Sequence: STSSLPTFSFSSLAPS [SeqRBMlowT_2354]
Chip Fluorescence (max) [5]: 1.162 | Chip Fluorescence (mean) [6]: -0.4848

Sequence: STSSLPTFSFSSPAPS [SeqRBMlowT_801]
Chip Fluorescence (max) [11]: -0.2979 | Chip Fluorescence (mean) [12]: -1.46

Sequence: STSSLPTFSFSSPASS [SeqRBMlowT_1605]
Chip Fluorescence (max) [11]: 0.1343 | Chip Fluorescence (mean) [12]: -0.9005

Sequence: STSSLPTFSFSSPLPT [SeqRBMlowT_898]
Chip Fluorescence (max) [11]: -0.2197 | Chip Fluorescence (mean) [12]: -1.424

Sequence: STSSLPTFSFSSPLST [SeqRBMlowT_892]
Chip Fluorescence (max) [3]: 1.3512 | Chip Fluorescence (mean) [4]: -0.8669

Sequence: STSSLPTFSFSSPPPT [SeqRBMlowT_3483]
Chip Fluorescence (max) [11]: -1.1866 | Chip Fluorescence (mean) [12]: -2.157

Sequence: STSSLPTFSFSSPPST [SeqRBMlowT_3479]
Chip Fluorescence (max) [11]: -1.235 | Chip Fluorescence (mean) [12]: -1.867

Sequence: STSSLPTFSFSSPVPS [SeqRBMlowT_2358]
Chip Fluorescence (max) [11]: -0.2537 | Chip Fluorescence (mean) [12]: -3.06

Sequence: STSSLPTFSFSSPVPT [SeqRBMlowT_3904]
Chip Fluorescence (max) [1]: 0.9816 | Chip Fluorescence (mean) [2]: -1.275

Sequence: STSSLPTFSFSSPVSH [SeqRBMlowT_1620]
Chip Fluorescence (max) [9]: 3.347 | Chip Fluorescence (mean) [10]: 0.3099

Sequence: STSSLPTFSFSTPPPT [SeqRBMlowT_1617]
Chip Fluorescence (max) [5]: 1.022 | Chip Fluorescence (mean) [6]: -1.34

Sequence: SVDKHPRVYVATSRED [SeqRBM_4749]
Chip Fluorescence (max) [7]: 4.793 | Chip Fluorescence (mean) [8]: 0.8161

Sequence: SYLPIIQVRMTDTGEY [SeqRBM_6285]
Chip Fluorescence (max) [5]: 1.118 | Chip Fluorescence (mean) [6]: 0.3431

Sequence: TDHMNPQITISSKEND [SeqRBM_3457]
Chip Fluorescence (max) [5]: 1.164 | Chip Fluorescence (mean) [6]: 0.5231

Sequence: TEWNNPQQIVGPTEGD [SeqRBM_3582]
Chip Fluorescence (max) [11]: 0.1516 | Chip Fluorescence (mean) [12]: -1.002

Sequence: TFHINPQLHLIVSDAD [SeqCAPN11_Daphnia_magna]
Chip Fluorescence (max) [11]: -0.5586 | Chip Fluorescence (mean) [12]: -0.9234

Sequence: TFHLNPQYRITLEDPD [SeqCAPN11_Daphnia_magna_3]
Chip Fluorescence (max) [3]: 1.7985 | Chip Fluorescence (mean) [4]: 0.6671

Sequence: TFHREPQNRLYVLSAV [SeqRBM_456]
Chip Fluorescence (max) [11]: 0.238 | Chip Fluorescence (mean) [12]: -1.007

Sequence: TFHTNPQYRVNIEDQD [SeqRBM_8967]
Chip Fluorescence (max) [3]: 1.436 | Chip Fluorescence (mean) [4]: 0.08694

Sequence: TFNTNPQYTIQVVWPD [SeqRBM_7110]
Chip Fluorescence (max) [11]: -0.1833 | Chip Fluorescence (mean) [12]: -1.179

Sequence: TFTDNPQYTIKLVETD [SeqRBM_9774]
Chip Fluorescence (max) [1]: 0.9523 | Chip Fluorescence (mean) [2]: 0.09387

Sequence: TFWANPQFKIRLEEPD [SeqRBMlowT_2213]
Chip Fluorescence (max) [5]: 1.142 | Chip Fluorescence (mean) [6]: -0.04147

Sequence: TFWDNPQYQIKLNDPD [SeqRBM_8698]
Chip Fluorescence (max) [3]: 1.7877 | Chip Fluorescence (mean) [4]: -0.1207

Sequence: TFWHNPQYVINLEDPD [SeqCAPN11_Anopheles_dirus]
Chip Fluorescence (max) [3]: 1.5542 | Chip Fluorescence (mean) [4]: 0.5719

Sequence: TFWINPQFKVRLDEID [SeqCAPN11_Boiga_irregularis]
Chip Fluorescence (max) [3]: 1.765 | Chip Fluorescence (mean) [4]: 0.8018

Sequence: TFWINPQIVITLADED [SeqRBMlowT_2933]
Chip Fluorescence (max) [9]: 2.77 | Chip Fluorescence (mean) [10]: 0.3523

Further lines, results first:

Chip Fluorescence (max) [1]: 0.7621 | Chip Fluorescence (mean) [2]: -0.8277
Sequence: SAASFRIKQIEFMVSA [Seqshuffled_4815]

Chip Fluorescence (max) [9]: 2.835 | Chip Fluorescence (mean) [10]: 0.5943
Sequence: SDEAGPRIVITATELP [SeqRBMlowT_4492]

Chip Fluorescence (max) [5]: 1.153 | Chip Fluorescence (mean) [6]: -0.5729
Sequence: SDEAGVRIVITVTEAP [SeqRBMlowT_9535]

Chip Fluorescence (max) [7]: 4.191 | Chip Fluorescence (mean) [8]: 0.5898
Sequence: SFVHLPDFKVESLVRR [Seqshuffled_9544]

Chip Fluorescence (max) [7]: 5.89 | Chip Fluorescence (mean) [8]: 1.37
Sequence: SFWTNPQFKITLEEPD [SeqRBMlowT_6820]

Chip Fluorescence (max) [5]: 1.129 | Chip Fluorescence (mean) [6]: 0.3513
Sequence: SFWTNPQFRVKLEEVD [SeqRBMlowT_8566]

Chip Fluorescence (max) [3]: 1.655 | Chip Fluorescence (mean) [4]: 0.8527
Sequence: SKMAIAIYQMASCLLH [Seqshuffled_9384]

Chip Fluorescence (max) [3]: 1.684 | Chip Fluorescence (mean) [4]: 0.5765
Sequence: SLDEEPGISINEKPVG [Seqshuffled_9948]

Chip Fluorescence (max) [7]: 5.333 | Chip Fluorescence (mean) [8]: 1.133
Sequence: SNLACNDRHPNNEDAK [Seqshuffled_9450]

Chip Fluorescence (max) [7]: 7.538 | Chip Fluorescence (mean) [8]: 1.227
Sequence: SNSTNPEITITPAELC [SeqRIPOR2_Tarsius_syrichta]

Chip Fluorescence (max) [5]: 1.111 | Chip Fluorescence (mean) [6]: 0.4902
Sequence: SQFDQVHYGLHIATFH [Seqshuffled_4372]

Chip Fluorescence (max) [11]: 0.08477 | Chip Fluorescence (mean) [12]: -0.8412
Sequence: SQLAAPAINIDFAPTN [SeqRBMlowT_5061]

Chip Fluorescence (max) [1]: 0.9511 | Chip Fluorescence (mean) [2]: 0.1118
Sequence: SRPLDEEGAMAPTLAN [SeqRIPOR2_Propithecus_coquereli]

Chip Fluorescence (max) [11]: -0.1972 | Chip Fluorescence (mean) [12]: -1.194
Sequence: SSAAPPAINIDFAPTN [SeqRBMlowT_5045]

Chip Fluorescence (max) [3]: 1.331 | Chip Fluorescence (mean) [4]: 0.1061
Sequence: SSKSLPTFSFSSPVSH [SeqRBMlowT_6060]

Chip Fluorescence (max) [7]: 4.629 | Chip Fluorescence (mean) [8]: 0.8375
Sequence: SSRSSSRPARSPERKP [SeqRGA2_Fusarium_oxysporum]

Chip Fluorescence (max) [9]: 2.669 | Chip Fluorescence (mean) [10]: -0.6649
Sequence: STASLPTFSFSPLAPS [SeqRBMlowT_9999]

Chip Fluorescence (max) [3]: 1.433 | Chip Fluorescence (mean) [4]: -0.5855
Sequence: STEIIATLFVQVANEY [Seqshuffled_9888]

Chip Fluorescence (max) [9]: 2.848 | Chip Fluorescence (mean) [10]: -0.8116
Sequence: STKSSGRPSRSPERAS [SeqRGA2_Colletotrichum_sublineola]

Chip Fluorescence (max) [3]: 1.58 | Chip Fluorescence (mean) [4]: 0.09302
Sequence: STSGTFPQTESSHKKQ [SeqRBMlowT_5831]

Chip Fluorescence (max) [9]: 2.68 | Chip Fluorescence (mean) [10]: 0.3277
Sequence: STSSLPTFSFSPPQPT [SeqRBMlowT_3908]

Chip Fluorescence (max) [5]: 1.216 | Chip Fluorescence (mean) [6]: -1.018
Sequence: STSSLPTFSFSSPKPQ [SeqRBMlowT_8920]

Chip Fluorescence (max) [3]: 1.5 | Chip Fluorescence (mean) [4]: -1.084
Sequence: STSSLPTFSFSSPLPS [SeqRBMlowT_3929]

Chip Fluorescence (max) [5]: 1.1241 | Chip Fluorescence (mean) [6]: -0.7201
Sequence: STSSLPTFSFSSPQPS [SeqRBMlowT_3925]

Chip Fluorescence (max) [11]: -0.1298 | Chip Fluorescence (mean) [12]: -1.588
Sequence: STSSLPTFSFSSPQST [SeqRBMlowT_3930]

Chip Fluorescence (max) [9]: 3.124 | Chip Fluorescence (mean) [10]: 1.438
Sequence: SVWENATVRFNFFPDN [Seqshuffled_9917]

Chip Fluorescence (max) [7]: 3.4958 | Chip Fluorescence (mean) [8]: 1.049
Sequence: TFHTNPQYRIKLEEPD [SeqRBMlowT_4495]

Chip Fluorescence (max) [11]: 0.1586 | Chip Fluorescence (mean) [12]: -0.3624
Sequence: TFWANPQFRIKLEEPD [SeqRBMlowT_4612]

Chip Fluorescence (max) [7]: 4.098 | Chip Fluorescence (mean) [8]: 0.694
Sequence: TFWANPQYKIHLEEED [SeqRBMlowT_4653]
